Data from patent US20200390100A1, “SUBSTITUTED N-HETEROCYCLYL- AND N-HETEROARYL-TETRAHYDROPYRIMIDINONES AND THE SALTS THEREOF, AND THE USE OF SAME AS HERBICIDAL ACTIVE SUBSTANCES” (Bayer Aktiengesellschaft, priority 2017, published 2020).

Assays:
Assay in all cases: Herbicidal pre-emergence action (Part 2), 1280 g/ha
Assay type in all cases: in vivo
Abutilon theophrasti = conditions: application rate 1280 g/ha, scored visually after about 3 weeks, Table D5
Procedure, shortened: (§1)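 Surface soil treatment over sown weed seeds in sandy loam used formulated compound in water with 0.5% additive at a 600 L/ha spray volume. Effect was rated visually in percent versus untreated plants after about three weeks of greenhouse growth.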

Amaranthus retroflexus = conditions: application rate 1280 g/ha, scored visually after about 3 weeks, Table D6
Procedure, shortened: as §1

Echinochloa crus-galli = conditions: application rate 1280 g/ha, scored visually after about 3 weeks, Table D1
Procedure, shortened: as §1

Lolium rigidum = conditions: application rate 1280 g/ha, scored visually after about 3 weeks, Table D2
Procedure, shortened: as §1

Matricaria inodora = conditions: application rate 1280 g/ha, scored visually after about 3 weeks, Table D7
Procedure, shortened: as §1

Poa annua = conditions: application rate 1280 g/ha, scored visually after about 3 weeks, Table D3
Procedure, shortened: as §1

Setaria viridis = conditions: application rate 1280 g/ha, scored visually after about 3 weeks, Table D4
Procedure, shortened: as §1

Stellaria media = conditions: application rate 1280 g/ha, scored visually after about 3 weeks, Table D8
Procedure, shortened: as §1

CC1CC(O)N(c2cc(C(C)(C)C)on2)C(=O)N1C (centres unmarked) [I.41-162, 1-(5-tert-Butyl-1,2-oxazol-3-yl)-6-hydroxy-3,4-dimethyltetrahydropyrimidin-2(1H)-one]
100%: Abutilon theophrasti (Abutilon theophrasti) | Amaranthus retroflexus (Amaranthus retroflexus) | Echinochloa crus-galli (Echinochloa crus-galli) | Lolium rigidum (Lolium rigidum) | Matricaria inodora (Matricaria inodora) | Poa Annua (Poa annua) | Setaria viridis (Setaria viridis) | Stellaria media (Stellaria media)
